Laboratory results as given in patent US10238641B2, “Materials and methods for diagnosis, prevention and/or treatment of stress disorders and conditions associated with A-beta peptide aggregation” (The United States of America as represented by the …, priority 2008, dated 2019).

What was measured:
Aβ1-42 peptide = molecular target: T1, Aβ1-42 peptide (Homo sapiens, UniProt P05067); assay: Aβ oligomerization, Western blot and dot-blot immunoassays (6E10, A11 antibodies); type: biochemical
T1 construct: Aβ1-42 peptide was obtained from American Peptide; purchased American Peptide (Sunnyvale, Calif., USA)
T1 sequence (P05067 672-713 limits assumed): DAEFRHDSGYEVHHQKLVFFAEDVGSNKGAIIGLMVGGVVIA
Experimental: Aβ1-42 peptide was obtained from American Peptide (Sunnyvale, Calif., USA). To obtain Aβ1-42 oligomer solutions, we used a previously described protocol that results in solutions containing stable oligomers, but not fibrils for several days (Necula et al. (2007)). The lyophilized peptide was dissolved in 1 volume of 1 mM NaOH and then diluted in phosphate-buffered saline (PBS) pH 7.4 to the desired concentrations.
For the analysis of the inhibition of Aβ1-42 oligomerization/aggregation reaction, we incubated Aβ (100 μM, pH 7.4) prepared in the absence or presence of ascending concentrations of cotinine (100, 200 and 500 μM) for 7 days at 25° C. and analyzed on days 2, 5, 6 and 7. Aβ oligomerization was analyzed by Western blot and dot-blot immunoassays using antibody 6E10, which preferentially recognizes the monomeric form of Aβ and the A11 antibody that specifically recognizes the oligomeric form of the peptide but not Aβ monomers, protofibrils or fibrils.
The western blot analysis was performed as described before (Necula et al. (2007)). 10 μl-aliquots of each oligomerization reaction containing Aβ alone or Aβ plus cotinine were mixed with 5×SDS sample buffer and loaded in a 4-20% Tris-HCl gel and analyzed by Western blot using the 6E10 antibody.
The dot-blot analysis was performed as described (Necula et al. (2007)). 4-8 μl of the oligomerization mixture was applied onto nitrocellulose membranes and allowed to dry, after which the membranes were blocked for 1 h at room temperature with 10% skim milk in TBS containing 0.05% Tween 20 (TBS-T). […] After being washed with TBS-T, membranes were incubated with horseradish peroxidase-conjugated secondary antibody (1:5000) for 1 h, and visualized using enhanced chemiluminescence (Dura ECL detection kit, Pharmacia Biotech, Piscataway, N.J., USA), scanned on the Kodak Image Station 440CF, and analyzed using Molecular Imaging Software version 4.0 (Rochester, N.Y., USA) and NIH ImageJ software. The Aβ solutions for each particular day were analyzed in the same membrane and developed simultaneously. […]

anxiety in mice = assay: Elevated plus maze, basal anxiety; type: in vivo; conditions: cotinine 1 and 5 mg/kg
Description: Mice were placed in an EPM (Stoelting, Wood Dale, Ill., USA) made of grey plexiglas, consisting of two opposite-facing open arms, two opposite-facing closed arms, and a central area. Mice were placed at the end of one of the open arms facing toward the central area before a 5-minute test session was begun. We recorded the number of entries into the open and closed arms and assessed the exploratory behavior of the mice. We utilized a video tracking software that measures movement in each section of the maze in order to determine the time the mice were mobile exploring the different arms. Statistical significance was evaluated using One-way ANOVA with Tukey posttest. ns, not significant.
The elevated plus maze (EPM) is considered the first choice test for screening anxiolytic effects of drugs. This test is based on the fact that higher anxiety levels will decrease the drive to explore a new environment as a way to avoid a potentially dangerous areas (open arms), and will, therefore, cause the mice to stay immobile in the closed arms for a longer period of time.

cortical cells = assay: Survival of cortical cells exposed to cotinine alone, MTT assay; type: cell-based, rat; conditions: various concentrations of cotinine, 48 hours
Experimental: Cortical cells were subjected to various concentrations of cotinine and cell viability was assessed after 48 hours by MTT assay (see FIG. 1). Statistical significance of the differences in MTT values was assessed by one-way ANOVA with Tukey post-test. ns, not significant difference with (P>0.05).

SMILES: CN1C(=O)CC[C@H]1c1cccnc1 [cotinine]
- levels of Aβ monomers (Western blot, 6E10) (Aβ1-42 peptide; 100 μM Aβ1-42, cotinine 100, 200, 500 μM, 5 and 7 days at 25° C.): increased the levels of Aβ monomers
- concentration of Aβ oligomers (A11 dot-blot) (Aβ1-42 peptide; 100 μM Aβ1-42, cotinine 100, 200, 500 μM, days 2 and 6 at RT): decreased the concentration of Aβ oligomers
- 6E10 immunoreactivity (dot-blot) (Aβ1-42 peptide; 100 μM Aβ1-42, increasing cotinine, days 2 and 6 at RT): higher immunoreactivity for the 6E10 antibody
- time spent on open arms (EPM, resting conditions) (anxiety in mice; p=0.4471): did not change
- time spent on closed arms (EPM, resting conditions) (anxiety in mice; p=0.6186): did not change
- time spent exploring the maze (EPM, resting conditions) (anxiety in mice; p=0.8831): did not change
- survival of cortical neurons exposed to cotinine alone (cortical cells): not Affected
